Test results published in patent US7943146B2, “Immunizing compositions comprising HIV-1 proviral constructs with an inactive p6 gag TSG101 UEV binding domain capable of producing budding-defective viral particles that remain tethered to the cell surface” (priority 2001, dated 2011).

What was measured:
[1] = Cytotoxicity measurement in uninfected PBMCs (MTS staining); type: cell-based; details: human PBMCs without virus, seven days; read-out: TC50
Protocol: At assay termination the assay plates were stained with the soluble tetrazolium-based dye MTS (CellTiter Reagent, Promega) to determine cell viability and quantify compound toxicity. MTS is metabolized by the mitochondria enzymes of metabolically active cells to yield a soluble formazan product, allowing the rapid quantitative analysis cell viability and compound cytotoxicity. […] At termination of the assay, 20 μl of MTS reagent was added per well. The wells were incubated overnight for the HIV cytoprotection assay at 37° C. The incubation intervals were chosen based on empirically determined times for optimal dye reduction in each cell type. Adhesive plate sealers were used in place of the lids, the sealed plate was inverted several times to mix the soluble formazan product and the plate was read spectrophotometrically at 490 nm with a Molecular Devices Vmax plate reader.

[2] = test system: HIV; assay: microbe, parasite or virus in culture; type: cell-based, HIV-1
Protocol: Fresh human blood was obtained commercially from Interstate Blood Bank, Inc. (Memphis, Tenn.). The lymphotropic clinical isolate HIV-1ROJO was obtained from a pediatric patient attending the AIDS Clinic at the University of Alabama at Birmingham. The laboratory-adapted HIV-1IIIB strain was propagated and tittered in fresh human PBMCs; pre-titered aliquots of HIV-1ROJO and Hiv-1IIIB were removed from the freezer (−80° C.) and thawed rapidly to room temperature in a biological safety cabinet immediately before use. Phytohemagglutinin (PHA-P) was obtained from Sigma (St. Louis, Mo.) and recombinant IL-2 was obtained from Amgen (San Francisco, Calif.).
Fresh human PBMCs were isolated from screened donors, seronegative for HIV and HBV. Leukophoresed blood was diluted 1:1 with Dulbecco's phosphate buffered saline (PBS), layered over 14 mL of Ficoll-Hypaque density gradient in a 50 mL centrifuge tube and then centrifuged for 30 minutes at 600×g. Banded PBMCs were aspirated from the resulting interface and subsequently washed 2× with PBS by low speed centrifugation. After the final wash, cells were enumerated by trypan blue exclusion and re-suspended at 1×10^7 cells/mL in RPMI 1640 supplemented with 15% Fetal Bovine Serum (FBS), 2 mM L-glutamine, 4 μg/mL PHA-P. The cells were allowed to incubate for 48-72 hours at 37° C. After incubation, PBMCs were centrifuged and reset in RPMI 1640 with 15% FBS, 2 mM L-glutamine, 100 U/ml penicillin, 100 μg/mL streptomycin, 10 μg/mL gentamycin, and 20 U/mL recombinant human IL-2. PBMCs were maintained in this medium at a concentration of 1-2×10^6 cells/mL with biweekly medium changes until used in the assay protocol.
For the standard PBMC assay, PHA-P stimulated cells from at least two normal donors were pooled, diluted in fresh medium to a final concentration of 1×10^6 cells/mL, and plated in the interior wells of 96 well round bottom microplate at 50 μL/well (5×10^4 cells/well). Test drug dilutions were prepared at a 2× concentration in microtiter tubes and […] of each concentration was placed in appropriate wells in a standard format. […] Wells with cells and virus alone were used for virus control. Separate plates were prepared identically without virus for drug cytotoxicity studies using an XTT assay system. The PBMC cultures were maintained for seven days following infection, at which time cell-free supernate samples were collected and assayed for reverse transcriptase activity as described below.
A microtiter based reverse transcriptase (RT) reaction was utilized. See Buckheit et al., AIDS Research and Human Retroviruses 7:295-302 (1991). Tritiated thymidine triphosphate (NEN) (TTP) was resuspended in distilled H2O at 5 Ci/ml. Poly rA and oligo dT were prepared as a stock solution which was kept at −20° C. The RT reaction buffer was prepared fresh on a daily basis and consists of 125 μl 1M EGTA, 125 μl dH2O, 110 μl 10% SDS, 50 μl 1M Tris (pH 7.4), 50 μl 1M DTT, and 40 μl 1M MgCL2. These three solutions were mixed together in a ratio of 2 parts TTP, 1 part poly rA:oligo dT, and 1 part reaction buffer. Ten microliters of this reactions mixture was placed at a round bottom microtiter plate and 15 μl of virus containing supernatant was added and mixed. […] Opti-Fluor-O (Packard) was added to each sample and incorporated radioactivity was quantified utilizing a Wallac 1450 MicroBeta Plus liquid scintillation counter.

[3] = molecular target: T1, interaction between GAGp6 and Tsg101 (Homo sapiens, UniProt Q99816); assay: In vitro binding assay: GST-p6 on plate, myc-tagged Tsg101 (residues 1-207), competition by peptide; details: FIG. 3, different peptide concentrations, fluorescence signal
T1 construct: Drosophila S2 cell lysate myc-tagged Tsg101 (residues 1-207); made in house; host or cells: Drosophila S2 cells (Tsg101, used as cell lysate)
T1 sequence (Q99816 1-207): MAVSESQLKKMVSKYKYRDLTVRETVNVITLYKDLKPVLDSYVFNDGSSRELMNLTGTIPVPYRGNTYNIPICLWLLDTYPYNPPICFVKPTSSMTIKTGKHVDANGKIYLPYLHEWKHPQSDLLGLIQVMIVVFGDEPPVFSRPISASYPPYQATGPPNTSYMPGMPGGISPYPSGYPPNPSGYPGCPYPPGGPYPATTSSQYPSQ
Protocol: A fusion protein with a GST tag fused to the HIV-1 GAGp6 domain was recombinantly expressed and purified by chromatography. In addition, a GAGp6 peptide containing the first 14 amino acid residues (“p6(1-14)”) was synthesized chemically by standard peptide synthesis methods. The peptide was purified by conventional protein purification techniques, e.g., by chromatography.
Nunc/Nalgene Maxisorp plates were incubated overnight at 4° C. or for 1-2 hrs at room temperature in 100 μl of a protein coupling solution containing purified GST-p6 and 50 mM Carbonate, pH=9.6. This allowed the attachment of the GST-p6 fusion protein to the plates. Liquids in the plates were then emptied and wells filled with 400 μl/well of a blocking buffer (SuperBlock; Pierce-Endogen, Rockford, Ill.). […]
Plates were then washed 4×100 μl with 1×PBST solution (Invitrogen; Carlsbad, Calif.). […] Plates were then read on a Packard Fusion instrument at an excitation wavelength of 325 nm and an emission wavelength of 420 nm. […]
Different concentrations of the p6(1-14) peptide were tested, and the relative intensities of the fluorescence signals obtained at different concentrations were plotted against the peptide concentrations. […]

Cc1cn([C@H]2C[C@H](N=[N+]=[N-])[C@@H](CO)O2)c(=O)[nH]c1=O [AZT, 3′-Azido-3′-deoxythymidine, reference compound]
CC50 at 7 days [1]: > 1000 nM
IC50 ([2]; Human immunodeficiency virus 1, PBMC, 168 h, PHA-P stimulated human PBMCs, MOI≈0.1, seven days, RT activity in supernate): 8 nM
Comments (anti-HIV activity) ([2]; human PBMCs): Control; Highly Active

p6(1-14): GAGp6 peptide containing the first 14 amino acid residues, synthesized chemically (LQSRPEPTAPPEES)
inhibition of the interaction between GAGp6 and Tsg101 [3]: competitive inhibition
